{"source": "patent US5696231A", "about": "“N-substituted glycine derivatives as enzyme inhibitors” (Corvas International, Inc., priority 1994, dated 1997)", "key": {"[1]": {"system": "pooled normal human plasma", "assay": "Activated partial thromboplastin time (APTT) assay in citrated human plasma", "format": "biochemical", "excerpt": "(§1) FIG. 2 depicts the anticoagulant effect of (D)-camphorsulfonyl aspartyl sarcosine arginine aldehyde measured in citrated human plasma using the activated partial thromboplastin time (APTT) assay, closed circles (1), and prothrombin time (PT) assay, open triangles (D). The control clotting times (0 inhibitor) for the APTT and PT assays in human plasma were 29 seconds and 13 seconds, respectively. The concentration of (D)-camphorsulfonyl aspartyl sarcosine arginine aldehyde which caused a doubling of the control clotting times in the APTT and PT assays were 54 micromolar and 298 micromolar, respectively. The data is the mean of two independent determinations.\n(§2) The ex vivo anticoagulant effect of a compound of the present invention, (D)-camphorsulfonyl aspartyl sarcosine arginine aldehyde (Example 56), was determined by measuring the prolongation of the activated partial thromboplastin time (APTT) and prothrombin time (PT) over a broad concentration range of the added inhibitor, using pooled normal human plasma.\n(§3) Fresh frozen citrated pooled normal human plasma was obtained from George King Biomedical, Overland Park, Kansa. […]"}, "[2]": {"system": "pooled normal human plasma", "assay": "Prothrombin time (PT) assay in citrated human plasma", "format": "biochemical", "settings": "control clotting time 13 seconds, mean of two independent determinations", "excerpt": "as §1, §2, §3"}}, "data": [{"smiles": "CN(CC(=O)N[C@H](C=O)CCCN=C(N)N)C(=O)[C@H](CC(=O)O)NS(=O)(=O)C[C@]12CC[C@H](CC1=O)C2(C)C", "note": "[(D)-camphorsulfonyl aspartyl sarcosine arginine aldehyde]", "values": [{"measurement": "concentration which caused a doubling of the control clotting time in the APTT assay", "setting": "[1]; citrated human plasma, control clotting time 29 seconds, mean of two independent determinations", "value": 54, "unit": "µM"}, {"measurement": "prolongation of the APTT", "setting": "[1]; human plasma, broad concentration range of added inhibitor (FIG. 2)", "value": "prolonged the APTT in a dose dependent manner"}, {"measurement": "concentration which caused a doubling of the control clotting time in the PT assay", "setting": "[2]", "value": 298, "unit": "µM"}]}]}
